Test results as given in US10485795B2, “FXR (NR1H4) binding and activity modulating compounds” (Gilead Sciences, Inc., priority 2011, dated 2019).
Values after ≈ are worked out from the molar mass of the structure shown.

What was measured:
Aqueous solubility assay = format: physicochemical; conditions: PBS buffer, kinetic from dmso stock, pH 7.4, theoretical final concentration of 200 μM
Method: The aq. solubility in PBS, pH 7.4 was determined as follows. A 10 mM compound stock solution in DMSO was added to PBS (pH 7.4) to reach a theoretical final concentration of 200 μM. The resulting solution/suspension was shaken at 1250 rpm for 1 h and then stored in the dark at rt for 23 h. At this time any precipitate is separated from the solution by centrifugation at 3900 rpm for 30 min. The aq. solubility was determined by comparing the peak area of the principle peak in a calibration standard (200 μM) in an organic solvent (methanol/water 60:40, v/v) with the peak area of the corresponding peak in the buffer sample. As detection method was used HPLC-UV/VIS at 230 nm.

[1] = Parallel Artificial Membrane Permeation Assay (PAMPA); format: in vitro ADME; conditions: Flux (%) = (c acceptor well) / sum (c donor well + c acceptor well) × 100 × 2; PBS pH 7.4, 15-16 h at rt
Method: For the PAMPA, 5 mM stock solutions of test items were prepared in DMSO. 5 mM stock solutions of reference items were prepared in EtOH (carbamazepine, guanabenz) or in EtOH:H2O 1:1 (v/v) (ceftriaxone), respectively. Compounds were diluted in PBS (pH 7.4) to obtain the starting solutions containing 5% of the respective organic solvent and 250 μM reference compounds or 10 μM test items, respectively. For the assay, a modified procedure of the PAMPA as described by Kansy et al. Kansy et al. (J. Med. Chem. 1998, 41, 1007) was used. The reference compounds for low (ceftriaxone), medium (guanabenz) and high permeation (carbamazepine) were included as internal controls.
Permeation experiments were carried out in a Multiscreen 96 well tray (donor) covered by a 96-well Multiscreen Immobilon (acceptor). The hydrophobic filter material of the Immobilon plate was pre-wetted with 70% ethanol and treated with a solution of lipids (lecithin dissolved in dodecane). The donor plate was filled with test compounds and reference compounds and both plates were inserted into each other and placed onto an orbital shaker for 15 min at 100 rpm. The transport study was started by applying 150 μL PBS-buffer containing the test and reference compounds to the donor plate. After 15-16 h of diffusion at rt, the contents of the acceptor and donor plate were collected and quantified using LC/MS-detection (test items) or by UV spectroscopy using a Spectramax Plus^384 (Molecular Devices) (reference items). The absorption maxima for the reference items ceftriaxone, guanabenz and carbamazepine were 240 nm, 270 nm and 286 nm, respectively. Recovery samples were prepared as described for the permeation assay samples and were incubated in representative vials during the permeation period under the same conditions.
For LC/MS analysis of the test items, 100 μL incubate were removed from acceptor and donor compartment and processed for acetonitrile (ACN) precipitation as described below. Additionally, test item samples from the lipid layer were extracted by flushing each well two times with 150 μL EA. The solutions were collected in 1.5 mL reaction tubes and the solvent was evaporated. The dried residues were resuspended in a PBS/DMSO/ACN mixture reflecting the composition of the acceptor and donor samples (i.e. 100 μL buffer supplemented with 5% DMSO, 200 μL ACN+ISTD). The final solvent content of each sample was 66% ACN.
Samples from donor and acceptor compartments and calibration standards were precipitated by addition of 200 μL ACN/ISTD or 400 μL ACN/ISTD, respectively. After vigorous shaking (10 seconds) and centrifugation (5 min at 4800×g, rt), the particle free supernatants were subjected to LC-MS/MS. Membrane compartments were extracted as described above. […]

SMILES	solubility at 24 h (Aqueous solubility assay)	PAMPA, Membrane permeability in % Flux [1]
O=C(O)c1cccc(N2CC(O)(c3ccc(OCc4c(-c5c(Cl)cccc5Cl)noc4C4CC4)cc3Cl)C2)c1	195 µM (≈ 114 µg/mL)	
O=C(O)c1ccc(C2CC(O)(c3ccc(OCc4c(-c5c(Cl)cccc5Cl)noc4C4CC4)cc3Cl)C2)cc1 (stereo not drawn)	192 µM (≈ 112 µg/mL)	21.1 % Flux
O=C(O)c1cccc([C@H]2C[C@](O)(c3ccc(OCc4c(-c5c(Cl)cccc5Cl)noc4C4CC4)cc3Cl)C2)c1 [drawing 47]	192 µM (≈ 112 µg/mL)	24.0 % Flux
O=C(O)c1cccc(C2CC2c2ccc(OCc3c(-c4c(Cl)cccc4Cl)noc3C3CC3)cc2Cl)c1 (stereo not drawn) [reference compound]	20 µM (≈ 11.1 µg/mL)	13.6 % Flux
O=C(O)c1ccc(C2CC2c2ccc(OCc3c(-c4c(Cl)cccc4Cl)noc3C3CC3)cc2Cl)cc1 (stereo not drawn) [reference compound]	72 µM (≈ 39.9 µg/mL)	20.7 % Flux
